The record followed here is patent publication US20150274787A1, “METHOD FOR RECOMBINANT PRODUCTION OF LABYRINTHOPEPTINS AND FUNCTIONAL DERIVATIVES THEREOF” (priority 2011, published 2015).

*1 amine or outer side, *2 acyl side, *3 side chain or, on linkers, in order; H or OH if unused. Where a SMILES comes first, the peptide text is derived from it. Bridges are numbered along the chain shown (N, C = ends). Where no end group is shown, it is not given here. [ ]: non-standard residue; d: D form. The star is where a group is joined. X1 = NC1=N[C@@H]([C@H](N[*:1])C(=O)[*:2])C[C@H](O)N1; ΔAla(Z-3-ureido) = NC(=O)N/C=C(\N)C(=O)O; β3hOrn = NCCC[C@H](N)CC(=O)*; Dap = NC[C@H](N)C(=O)O

Experiment [1] deals with A. namibiensis. Nature of the experiment: Testing selection markers (antibiotic resistance) suitable for genetic manipulations of A. namibiensis. On Growth after 4 days: key: −: no growth; +: slight growth; ++: medium growth; +++: strong growth. On Growth after 7 days: key: −: no growth; +: slight growth; ++: medium growth; +++: strong growth. The format is cell-based, Actinomadura namibiensis. Particulars: for Growth after 4 days / Growth after 7 days: A. namibiensis. The procedure:
An apramycin resistance gene was used as selectable marker for vectors used in this study because from all eight tested antibiotics A. namibiensis was […] to apramycin (50 μg/ml). Initially for establishing a way in which DNA can be introduced into A. namibiensis the typical cloning vectors for Streptomyces strains were used. Plasmid pUWLoriT which can replicate autonomously in Streptomyces and plasmid pSET152 which can integrate site-specifically at the bacteriophage ΦC31 attachment site (18) (7) were used. […] Although Actinomaduras and Streptomyces are related it is still possible that origin of replication (ori) for Streptomyces is not recognized by A. namibiensis (9). Description of similar difficulties can be found in the literature (17). This led to the use of vectors harboring replicons of Actinomadura strains: pSETermEΔHindIII_oriCLL4, pK18mobXylE_oripCLL4 and pCLL4_ori_apra. Also a non-replicating plasmid pK18mob2 with a fragment coding for the LabKC modifying enzyme was used for transformation of A. namibiensis.

Experiment [2] deals with T1, human P2X4 receptor (Homo sapiens, UniProt Q99571).
T1 construct: expressed in transfected cells; host or cells: HEK cells (hP2X4_HEK-FITR), expression induced with doxycyclin
T1 sequence (Q99571 1-388): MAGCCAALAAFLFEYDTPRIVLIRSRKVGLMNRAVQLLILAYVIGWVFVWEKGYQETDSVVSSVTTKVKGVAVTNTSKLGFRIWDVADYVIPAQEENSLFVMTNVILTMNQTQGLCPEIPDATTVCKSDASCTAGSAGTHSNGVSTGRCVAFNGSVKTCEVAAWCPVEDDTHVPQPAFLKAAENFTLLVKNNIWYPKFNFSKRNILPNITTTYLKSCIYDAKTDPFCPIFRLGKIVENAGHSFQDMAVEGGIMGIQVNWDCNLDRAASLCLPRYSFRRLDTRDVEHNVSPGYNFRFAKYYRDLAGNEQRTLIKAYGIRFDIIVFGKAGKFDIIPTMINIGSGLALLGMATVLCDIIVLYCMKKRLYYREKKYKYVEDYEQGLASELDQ
The experiment in a line: IC50 determination by patch clamp on hP2X4_HEK-FITR cell line (in vitro anti-pain assay). The format is cell-based. Particulars: recombinant human P2X4 in HEK cells, 10 μM ATP, holding potential −60 mV, 0.3 to 90 μM. The source says: Evaluation of anti-pain activity of labyrinthopeptin A2 and its structural analogs LabA2_L14A and LabA2 F15A in an in vitro assay (IC50 determination of LabA2, LabA2_L14A and LabA2_F15A on hP2X4_HEK-FITR-cell line) The use of labyrinthopeptin A2 and its derivatives, in particular LabA2_L14A and LabA2_F15A, as analgesics was investigated for neuropathic pain based on their inhibitory effects on P2X4 receptors (Nagata K et al., 2009).
Recombinant human P2X4 receptor was expressed in HEK cells (hP2X4_HEK-FITR). hP2X4 expression was induced with doxycyclin 1 μg/ml for 24 h to 48 h. The patch clamp experiment has been performed under standard conditions using an axopatch-200B amplifier and pClamp v10 acquisition software (Axon Instruments Inc, Foster City, Calif., USA). Cells were continuously superfused with an external solution consisting of (in mM) 130 CsCl, 4 NaCl, 1 MgCl2, 1 CaCl2, 10 EGTA (free Ca^2+=6.7 nM) and 10 HEPES (pH 7.4 with CsOH). This was replaced with a […] external solution consisting of (in mM) 145 NaCl, 4 KCl, 2 CaCl2, 1 MgCl2 and 10 HEPES (pH 7.4 with NaOH). 250 ms application of 10 μM ATP (Sigma) every 10 sec was performed. […] Currents were measured at a holding potential of −60 mV.
Results were calculated using Origin7.5 software (FIG. 27).
(In general: The patch-clamp technique gives a direct electrical read-out from membranes.)

The target of experiment [3] is T2, Recombinant human P2X4 receptor (human, UniProt Q99571 1-388).
T2 sequence (looked up): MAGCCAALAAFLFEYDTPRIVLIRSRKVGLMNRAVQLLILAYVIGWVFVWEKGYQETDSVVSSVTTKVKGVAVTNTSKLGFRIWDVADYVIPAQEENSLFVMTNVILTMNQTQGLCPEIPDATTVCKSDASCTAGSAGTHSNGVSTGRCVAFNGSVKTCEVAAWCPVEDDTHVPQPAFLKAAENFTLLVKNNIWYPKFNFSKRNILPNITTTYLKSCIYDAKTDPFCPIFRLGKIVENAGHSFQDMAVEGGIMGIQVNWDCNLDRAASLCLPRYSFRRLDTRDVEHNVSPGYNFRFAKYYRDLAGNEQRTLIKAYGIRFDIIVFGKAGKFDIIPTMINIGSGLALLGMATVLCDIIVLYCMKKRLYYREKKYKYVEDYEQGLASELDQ
The experiment in a line: cell-based or functional assay.

Turning to `CN[C@@H]1[C@@H](O[C@H]2O[C@H](CO)[C@@H](N)[C@H](O)[C@H]2O)OC2C[C@@H](N)[C@@H](O[C@H]3[C@H](O)[C@@H](O)[C@H](N)C[C@@H]3N)OC2[C@@H]1O` (stereo partly shown) [Apramycin], the “sensitivity of A. namibiensis to antibiotic” value in experiment [1] (50 μg/ml) is on record as “sensitive”. The “Growth after 4 days” value in experiment [1] (antibiotic conc. 25 μg/ml) and in experiment [1] (antibiotic conc. 50 μg/ml) was “−” throughout. The “Growth after 7 days” value is “+” in experiment [1] (antibiotic conc. 25 μg/ml) and “−” in experiment [1] (antibiotic conc. 50 μg/ml).
Take `NC[C@H]1O[C@H](O[C@H]2[C@H](O)[C@@H](O[C@H]3O[C@H](CO)[C@@H](O)[C@H](N)[C@H]3O)[C@H](N)C[C@@H]2N)[C@H](O)[C@@H](O)[C@@H]1O` [Kanamycin]: in experiment [1] (antibiotic conc. 50 μg/ml), the “Growth after 4 days” value was “+++” and the “Growth after 7 days” value is “+++”.
Take `C[C@@H]1O[C@@H]1P(=O)(O)O` [Phosphomycin]: in experiment [1] (antibiotic conc. 400 μg/ml), the “Growth after 4 days” value was “+++” and the “Growth after 7 days” value is “+++”.
With `CN[C@@H]1[C@H](O)[C@H](NC)[C@H]2O[C@@]3(O)C(=O)C[C@@H](C)O[C@H]3O[C@@H]2[C@H]1O` [Spectinomycin], in experiment [1] (antibiotic conc. 100 μg/ml), the “Growth after 4 days” value was “+++” and the “Growth after 7 days” value is listed as “+++”.
Regarding `[H]/N=C(/N)N[C@H]1[C@H](O)[C@@H](O)[C@H](O[C@@H]2O[C@@H](C)[C@](O)(C=O)[C@H]2O[C@@H]2O[C@@H](CO)[C@H](O)[C@@H](O)[C@@H]2NC)[C@@H](N/C(N)=N\[H])[C@@H]1O` [Streptomycin], in experiment [1] (antibiotic conc. 30 μg/ml), the “Growth after 4 days” value is recorded as “+” and the “Growth after 7 days” value is listed as “++”.
As for `C=C(NC(=O)C(=C)NC(=O)c1csc(C2=N[C@@H]3c4csc(n4)[C@H]4NC(=O)c5csc(n5)[C@H]([C@](C)(O)[C@@H](C)O)NC(=O)[C@H]5CSC(=N5)/C(=C/C)NC(=O)[C@H]([C@@H](C)O)NC(=O)c5csc(n5)[C@]3(CC2)NC(=O)[C@H](C)NC(=O)C(=C)NC(=O)[C@H](C)NC(=O)[C@H]([C@@H](C)CC)N[C@@H]2C=Cc3c([C@H](C)O)cc(nc3[C@H]2O)C(=O)O[C@@H]4C)n1)C(N)=O` [Thiostrepton], in experiment [1] (antibiotic conc. 25 μg/ml), the “Growth after 4 days” value is “−” and the “Growth after 7 days” value is on record as “+”. Further, the “sensitivity of A. namibiensis to antibiotic” value in experiment [1] (concentration not given) was “not sensitive”.
As to `NCCC[C@H](N)CC(=O)N[C@H]1CNC(=O)[C@H]([C@H]2C[C@H](O)NC(N)=N2)NC(=O)/C(=C/NC(N)=O)NC(=O)[C@H](CO)NC(=O)[C@H](CO)NC1=O` [Viomycin] (β3hOrn-[Dap]SS[ΔAla(Z-3-ureido)][X1]; lactam 1-C), in experiment [1] (antibiotic conc. 30 μg/ml), the “Growth after 4 days” value is “+” and the “Growth after 7 days” value is reported as “+”.
For Hydromycin, in experiment [1] (antibiotic conc. 50 μg/ml), the “Growth after 4 days” value is “++” and the “Growth after 7 days” value was “+++”.
With LabA2_F15A (SDWSLWECCSTGSLAACC), the “IC50 (concentration of a substance that blocks 50% of channels)” value in experiment [2] is reported as “could not be determined”.

B1: LabA2_L14A (peptide)
peptide: SDWSLWECCSTGSAFACC
modifications: thioether (positions not given here); not fully specified (residues 1, 4, 10, 13, bridges); also: labionin residues as in LabA2: methylene bridges between alpha-C atoms, places not given here
Turning to B1, the “IC50 of inhibition of ATP-evoked currents (patch clamp, hP2X4_HEK-FITR cells)” value in experiment [3] was 30 µM.
